Here are results for 29 compounds from patent US20240383904A1, “HETEROCYCLIC COMPOUNDS” (Hoffmann-La Roche Inc., priority 2021, published 2024).

Molecules are shown by their SMILES. pIC50: −log10 of the molar value.

This assay has as its target T1, MAGL (Homo sapiens, UniProt Q99685).
T1 sequence (Q99685 1-303): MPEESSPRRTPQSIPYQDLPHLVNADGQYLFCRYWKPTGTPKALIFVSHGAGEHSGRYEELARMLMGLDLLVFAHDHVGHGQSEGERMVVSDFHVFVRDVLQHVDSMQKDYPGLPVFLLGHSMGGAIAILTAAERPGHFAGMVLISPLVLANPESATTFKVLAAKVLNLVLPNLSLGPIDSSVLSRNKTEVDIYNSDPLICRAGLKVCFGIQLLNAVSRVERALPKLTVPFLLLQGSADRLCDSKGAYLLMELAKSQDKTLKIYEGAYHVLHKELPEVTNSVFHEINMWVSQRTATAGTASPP
The assay can be described thus: 2-AG assay: MAGL inhibitory activity by hydrolysis of 2-arachidonoylglycerol to arachidonic acid, followed by mass spectrometry. Conditions: 15 min preincubation, 30 min reaction at RT, 8 μM 2-arachidonoylglycerol. In kind it is biochemical.

What is called pIC50 is −log10 of the IC50, conventionally taken in molar units. A high value points to a low IC50. `O=C1COCC2(CN(C(=O)N3CC4(CC(Cn5cc(C(F)(F)F)cn5)C4)C3)C2)N1` [Example 230, 2-[6-[[4-(trifluoromethyl)pyrazol-1-yl]methyl]-2-azaspiro[3.3]heptane-2-carbonyl]-8-oxa-2,5-diazaspiro[3.5]nonan-6-one] showed a pIC50 of 7.23. To `O=C1COCC2(CN(C(=O)N3CC4(CC(Cc5ccc(C(F)(F)F)nn5)C4)C3)C2)N1` [Example 231, 2-[6-[[6-(trifluoromethyl)pyrida-zin-3-yl]methyl]-2-azaspiro[3.3]heptane-2-carbonyl]-8-oxa-2,5-diazaspiro[3.5]nonan-6-one] belongs 6.59; to `O=C1COCC2(CN(C(=O)N3CC4(CC(Cc5cnc(C(F)(F)F)nc5)C4)C3)C2)N1` [Example 232, 2-[6-[[2-(trifluoromethyl)pyrimi-din-5-yl]methyl]-2-azaspiro[3.3]heptane-2-carbonyl]-8-oxa-2,5-diazaspiro[3.5]nonan-6-one], 6.64. `O=C1COCC2(CN(C(=O)N3CC4(CCN(Cc5ccc(S(=O)(=O)C(F)(F)F)cc5)C4)C3)C2)N1` [Example 233, 2-[7-[[4-(trifluoromethylsulfonyl)phenyl]methyl]-2,7-diazaspiro[3.4]octane-2-carbonyl]-8-oxa-2,5-diazaspiro[3.5]nonan-6-one] had a pIC50 of 6.58. `O=C1COCC2(CN(C(=O)N3CC4(CC[C@@H](Cc5ccc(S(=O)(=O)C(F)(F)F)cc5)C4)C3)C2)N1` [Example 234, 2-[(6S)-6-[[4-(trifluoromethylsulfonyl)phenyl]methyl]-2-azaspiro[3.4]octane-2-carbonyl]-8-oxa-2,5-diazaspiro[3.5]nonan-6-one] gave a pIC50 of 8.07. In the case of `O=C1COCC2(CN(C(=O)N3CC4(CC[C@H](Cc5ccc(S(=O)(=O)C(F)(F)F)cc5)C4)C3)C2)N1` [Example 235, 2-[(6R)-6-[[4-(trifluoromethylsulfonyl)phenyl]methyl]-2-azaspiro[3.4]octane-2-carbonyl]-8-oxa-2,5-diazaspiro[3.5]nonan-6-one], the pIC50 was 8.13. Take `O=C1COCC2(CN(C(=O)N3CC4(CC[C@@H](Cc5cccc(S(=O)(=O)C(F)(F)F)c5)C4)C3)C2)N1` [Example 236, 2-[(6S)-6-[[3-(trifluoromethylsulfonyl)phenyl]methyl]-2-azaspiro[3.4]octane-2-carobnyl]-8-oxa-2,5-diazaspiro[3.5]nonan-6-one]: the pIC50 is 8.67.

Turning to `O=C1COCC2(CN(C(=O)N3CC4(CC[C@H](Cc5cccc(S(=O)(=O)C(F)(F)F)c5)C4)C3)C2)N1` [Example 237, 2-[(6R)-6-[[3-(trifluoromethylsulfonyl)phenyl]methyl]-2-azaspiro[3.4]octane-2-carbonyl]-8-oxa-2,5-diazaspiro[3.5]nonan-6-one], the pIC50 is 8.50. As for `CS(=O)(=O)c1cc(CC2CC3(C2)CN(C(=O)N2CC4(COCC(=O)N4)C2)C3)cc(C(F)(F)F)c1` [Example 238, 2-[6-[[3-methylsulfonyl-5-(trifluoromethyl)phenyl]methyl]-2-azaspiro[3.3]heptane-2-carbonyl]-8-oxa-2,5-diazaspiro[3.5]nonan-6-one], the negative logarithm of the IC50 (pIC50) is 7.78. To `O=C1COCC2(CN(C(=O)N3CC4(CC(Cn5ccc(C(F)(F)F)n5)C4)C3)C2)N1` [Example 239, 2-[6-[[3-(trifluoromethyl)pyrazol-1-yl]methyl]-2-azaspiro[3.3]heptane-2-carbonyl]-8-oxa-2,5-diazaspiro[3.5]nonan-6-one] belongs 7.28.

Consider `O=C1COCC2(CN(C(=O)N3CC4(CCN(Cc5ccc(C(F)(F)F)nc5)C4)C3)C2)N1` [Example 240, 2-[7-[[6-(trifluoromethyl)-3-pyridyl]methyl]-2,7-diazaspiro[3.4]octane-2-carbonyl]-8-oxa-2,5-diazaspiro[3.5]nonan-6-one], for which the pIC50 was 5.91.

Regarding `O=C1COCC2(CN(C(=O)N3CC4(CCN(Cc5ccc(C(F)(F)F)cn5)C4)C3)C2)N1` [Example 241, 2-[7-[[5-(trifluoromethyl)-2-pyridyl]methyl]-2,7-diazaspiro[3.4]octane-2-carbonyl]-8-oxa-2,5-diazaspiro[3.5]nonan-6-one], the pIC50 was 6.03. In the case of `N#Cc1cc(C(F)(F)F)ccc1CC1CC2(C1)CN(C(=O)N1CC3(COC(=O)N3)C1)C2` [Example 242, 2-[[2-(6-oxo-7-oxa-2,5-diazaspiro[3.4]octane-2-carbonyl)-2-azaspiro[3.3]heptan-6-y]methyl]-5-(trifluoroemthyl)benzoni-trile] it was 10.22; in that of `N#Cc1cc(CC2CC3(C2)CN(C(=O)N2CC4(COC(=O)N4)C2)C3)cnc1C(F)(F)F` [Example 243, 5-[[2-(6-oxo-7-oxa-2,5-diazaspiro[3.4]octane-2-carbonyl)-2-azaspiro[3.3]heptan-6-yl]methyl]-2-(trifluoromethyl)pyridine-3-carbonitrile], 9.22; in that of `NC(=O)c1ccc(CC2CC3(C2)CN(C(=O)N2CC4(COC(=O)N4)C2)C3)cc1OC(F)(F)F` [Example 244, 4-[[2-(6-oxo-7-oxa-2,5-diazaspiro[3.4]octane-2-carbonyl)-2-azaspiro[3.3]heptan-6-yl]methyl]-2-(trifluoromethoxy)benz-amide], 9.03.

On to `NC(=O)c1cc(CC2CC3(C2)CN(C(=O)N2CC4(COC(=O)N4)C2)C3)ccc1OC(F)(F)F` [Example 245, 5-[[2-(6-oxo-7-oxa-2,5-diazaspiro[3.4]octane-2-carbonyl)-2-azaspiro[3.3]heptan-6-yl]methyl]-2-(trifluoromethoxy)benz-amide], for which the pIC50 was 8.82. In the case of `Cn1nc(C(F)(F)F)cc1CC1CC2(C1)CN(C(=O)N1CC3(CCC(=O)N3)C1)C2` [Example 246, 2-[6-[[2-methyl-5-(trifluoromethyl)pyrazol-3-yl]methyl]-2-azaspiro[3.3]heptane-2-carbonyl]-2,5-diazaspiro[3.4]octan-6-one] it was 8.21; in that of `N#Cc1cnn(CC2CC3(C2)CN(C(=O)N2CC4(CCC(=O)N4)C2)C3)c1` [Example 247, 1-[[2-(6-oxo-2,5-diazaspiro[3.4]octane-2-carbonyl)-2-azaspiro[3.3]heptan-6-yl]methyl]pyrazole-4-carbonitrile], 6.51. Regarding `O=C1CCC2(CN(C(=O)N3CC4(CC(Cc5cnn(CC(F)(F)F)c5)C4)C3)C2)N1` [Example 248, 2-[6-[[1-(2,2,2-trifluoroethyl)pyrazol-4-yl]methyl]-2-azaspiro[3.3]heptane-2-carbonyl]-2,5-diazaspiro[3.4]octan-6-one], the pIC50 is 7.48. To `O=C1CCC2(CN(C(=O)N3CC4(CC(Cn5ccc(C(F)(F)F)cc5=O)C4)C3)C2)N1` [Example 249, 2-[6-[[2-oxo-4-(trifluoromethyl)-1-pyridyl]methyl]-2-azaspiro[3.3]heptane-2-carbonyl]-2,5-diazaspiro[3.4]octan-6-one] belongs 8.67.

As to `N#Cc1ccc(CC2CC3(C2)CN(C(=O)N2CC4(CCC(=O)N4)C2)C3)c(F)c1` [Example 251, 3-fluoro-4-[[2-(6-oxo-2,5-diazaspiro[3.4]octane-2-carbonyl)-2-azaspiro[3.3]heptan-6-yl]methyl]benzonitrile], the pIC50 is 9.22. To `O=C1CCC2(CN(C(=O)N3CC4(CC(Cc5cncc(S(=O)(=O)C(F)(F)F)c5)C4)C3)C2)N1` [Example 252, 2-[6-[[5-(trifluoromethylsulfonyl)-3-pyridyl]methyl]-2-azaspiro[3.3]heptane-2-carbonyl]-2,5-diazaspiro[3.4]octan-6-one] belongs 8.01; to `O=C1COCC2(CN(C(=O)N3CC4(CC(Cc5cncc(S(=O)(=O)C(F)(F)F)c5)C4)C3)C2)N1` [Example 253, 2-[6-[[5-(trifluoromethylsulfonyl)-3-pyridyl]methyl]-2-azaspiro[3.3]heptane-2-carbonyl]-8-oxa-2,5-diazaspiro[3.5]nonan-6-one], 7.47.

In the case of `O=C1COCC2(CN(C(=O)N3CC4(CC(Cc5cc(F)cc(S(=O)(=O)C(F)(F)F)c5)C4)C3)C2)N1` [Example 254, 2-[6-[[3-fluoro-5-(trifluoromethylsulfonyl)phenyl]methyl]-2-azaspiro[3.3]heptane-2-carbonyl]-8-oxa-2,5-diazaspiro[3.5]nonan-6-one], the pIC50 is 8.32.

On to `CS(=N)(=O)c1cc(CC2CC3(C2)CN(C(=O)N2CC4(CCC(=O)N4)C2)C3)cc(C(F)(F)F)c1` (centres unmarked) [Example 255, 2-[6-[[3-(methylsulfonimidoyl)-5-(trifluoromethyl)phenyl]methyl]-2-azaspiro[3.3]heptane-2-carbonyl]-2,5-diazaspiro[3.4]octan-6-one], for which the pIC50 is 8.38. In the case of `O=C1CCC2(CN(C(=O)N3CC4(CCN(Cc5cccc(S(=O)(=O)C(F)(F)F)c5)C4)C3)C2)N1` [Example 256, 2-[7-[[3-(trifluoromethylsulfonyl)phenyl]methyl]-2,7-diazaspiro[3.4]octane-2-carbonyl]-2,5-diazaspiro[3.4]octan-6-one] it was 7.57; in that of `O=C1CCC2(CN(C(=O)N3CC4(CC(Cc5cc(C(F)F)[nH]n5)C4)C3)C2)N1` [Example 257, 2-[6-[[5-(difluoromethyl)-1H-pyrazol-3-yl]methyl]-2-azaspiro[3.4]heptane-2-carbonyl]-2,5-diazaspiro[3.4]octan-6-one], 7.78. Consider `O=C1CCC2(CN(C(=O)N3CC4(CN(Cc5ccc(S(=O)(=O)C(F)(F)F)cc5F)C4)C3)C2)N1` [Example 258, 2-[6-[[2-fluoro-4-(trifluoromethylsulfonyl)phenyl]methyl]-2,6-diazaspiro[3.4]heptane-2-carbonyl]-2,5-diazaspiro[3.4]octan-6-one], for which the pIC50 is 7.73. As for `O=C1CCC2(CN(C(=O)N3CC4(CC(Cn5cc(C(F)(F)F)ccc5=O)C4)C3)C2)N1` [Example 259, 2-[6-[[2-oxo-5-(trifluoromethyl)-1-pyridyl]methyl]-2-azaspiro[3.3]heptane-2-carbonyl]-2,5-diazaspiro[3.4]octan-6-one], the pIC50 is 7.59.
